Measured values reported in patent US8980796B2, “Crystal modification of Mesotrione” (Agan Chemical Manufacturers Ltd., priority 2009, dated 2015).
Entries after “also recorded” stand apart in the source; their conditions may differ. Where two headings read alike, the source gives them in different places.

How the values were obtained:
[1] = per WO 2007/083242, WO 2006/021743, cited from earlier work
corn varieties = experiment: Selectivity pot trials, overall phytotoxicity on crops; type: in vivo; settings: corn varieties tested; 3500 ml/ha (equivalent to 350g a.i./ha)
Experimental: The selectivity of two Mesotrione 100SC (containing 100 g/l mesotrione) formulations was compared for two crystal modifications (1 and 3).
The test was performed on three corn varieties. The corn varieties were sown in plastic pots (400 cc) filled with heavy soil. Each treatment was sprayed in 5 replicates. The trial was performed in a glasshouse with controlled temperature (20-30°).
Post emergence spraying was performed two weeks after sowing. The trials were sprayed with a mechanical sprayer, with a spray volume of 200 L/ha (equivalent to 3500 ml/ha mesotrione 100SC). The plants were irrigated 24 H (hours) after spraying. Selectivity evaluations were conducted during the trial according to the following scale: • 0=Crop completely dead (necrotic). • 100=Plants without any phytotoxic damage.

SMILES: CS(=O)(=O)c1ccc(C(=O)C2C(=O)CCCC2=O)c([N+](=O)[O-])c1 [Mesotrione form 2, 2-[4-(methylsulfonyl)-2-nitrobenzoyl]-1,3-cyclohexanedione]
- thermodynamic stability of the polymorphic form ([1]; listed as Form 2): thermodynamically unstable

SMILES: CS(=O)(=O)c1ccc(C(=O)C2C(=O)CCCC2=O)c([N+](=O)[O-])c1 [Mesotrione form 3, 2-[4-(methylsulfonyl)-2-nitrobenzoyl]-1,3-cyclohexanedione]
- phytotoxicity on crops as compared to mesotrione form 1 (corn varieties): decreased phytotoxicity; also recorded: low phytotoxicity

SMILES: CS(=O)(=O)c1ccc(C(=O)C2C(=O)CCCC2=O)c([N+](=O)[O-])c1 [Mesotrione form 1, 2-[4-(methylsulfonyl)-2-nitrobenzoyl]-1,3-cyclohexanedione]
- thermodynamic stability of the polymorphic form ([1]; listed as Form 1): thermodynamically stable
